Source: publication PMC12214830, “The human RIF1-Long isoform interacts with BRCA1 to promote recombinational fork repair under DNA replication stress” (Nature Communications, 2025)

Key:
[1] = test system: BRCA1-BRCT domain (His6-SUMO-BRCT2); assay: fluorescence polarisation, tandem BRCT domains of BRCA1; type: binding, human
Method: Recombinant BRCT2 domain proteins were expressed as N-terminally HIS-SUMO tagged constructs from a modified pET15b vector in Escherichia coli BL21(DE3) host strain (Novagen). Cell pellets were re-suspended in lysis buffer containing 50 mM HEPES pH 7.5, 200 mM NaCl, 0.5 mM TCEP and supplemented with 10 U DNASE Turbo (ThermoFisher), then disrupted by sonication and the resulting lysate clarified by centrifugation at 40,000 × g for 60 min at 4 °C. The supernatant was applied to a 5 ml HiTrap TALON crude column (GE Healthcare, Little Chalfont, UK), washed first with buffer containing 50 mM HEPES pH 7.5, 1000 mM NaCl, 0.5 mM TCEP, followed by lysis buffer supplemented with 10 mM imidazole, with any retained protein then eluted by application of the same buffer supplemented with 250 mM imidazole. The eluted protein was concentrated before further purification by size exclusion chromatography.
(§1) For Fluorescence Polarisation experiments, a Superdex 75 16/60 size exclusion column (GE Healthcare) was used to purify the His6-SUMO-BRCT2 proteins to homogeneity in 25 mM HEPES pH 7.5, 200 mM NaCl, 1 mM EDTA, 0.25 mM TCEP, 0.02% (v/v) Tween-20.
(§2) Fluorescein-labelled peptides (Flu-RIF1pS2265 Flu-[…](pS)PKFKSSK, Flu-BRIP1pS990 Flu-[…](pS)PTFNKQT and Flu-H2AXpS140 Flu-[…](pS)QEY, where (pS) is phosphorylated Serine) (Peptide Protein Research Ltd, Bishops Waltham, UK) at a concentration of 200 nM, were incubated at room temperature with increasing concentrations of His6-SUMO-BRCT2 protein in 25 mM HEPES pH 7.5, 200 mM NaCl, 1 mM EDTA, 0.25 mM TCEP, 0.02% (v/v) Tween-20 in a black 96-well polypropylene plate (VWR, Lutterworth, UK). Incubation with Lambda phosphatase (NEB, Hitchin, UK) supplemented with 1 mM MnCl2 was used to remove the phosphorylation on the peptides. Fluorescence polarisation was measured in a CLARIOstar multimode microplate reader (BMG Labtech GmbH, Offenburg, Germany). Binding curves represent the mean of 4 independent experiments, with error bars of 1 standard deviation. […]

[2] = test system: tandem BRCT domains of 53BP1; assay: fluorescence polarisation, tandem BRCT domains of 53BP1; type: binding; settings: peptide 200 nM, 25 mM HEPES pH 7.5, 200 mM NaCl
Method: (§3) Recombinant BRCT2 domain proteins were expressed as N-terminally HIS-SUMO tagged constructs from a modified pET15b vector in Escherichia coli BL21(DE3) host strain (Novagen). Cell pellets were re-suspended in lysis buffer containing 50 mM HEPES pH 7.5, 200 mM NaCl, 0.5 mM TCEP and supplemented with 10 U DNASE Turbo (ThermoFisher), then disrupted by sonication and the resulting lysate clarified by centrifugation at 40,000 × g for 60 min at 4 °C. […]
as §1
as §2, with “Incubation with Lambda phosphatase (NEB, Hitchin, UK) supplemented with 1 mM MnCl2 was used to remove the phosphorylation on the peptides.” left out, “Germany).” for “Germany). Binding curves represent the mean of 4 independent experiments, with error bars of 1 standard deviation.”

[3] = test system: tandem BRCT domains of TOPBP1; assay: fluorescence polarisation, tandem BRCT domains of TOPBP1; type: binding; settings: peptide 200 nM, 25 mM HEPES pH 7.5, 200 mM NaCl
Method: as §3, §1
as §2, with “Incubation with Lambda phosphatase (NEB, Hitchin, UK) supplemented with 1 mM MnCl2 was used to remove the phosphorylation on the peptides.” left out, “Germany).” for “Germany). Binding curves represent the mean of 4 independent experiments, with error bars of 1 standard deviation.”

[4] = test system: tandem BRCT domains of MDC1; assay: fluorescence polarisation, tandem BRCT domains of MDC1; type: binding; settings: peptide 200 nM, 25 mM HEPES pH 7.5, 200 mM NaCl
Method: as §3, §1
as §2, with “Incubation with Lambda phosphatase (NEB, Hitchin, UK) supplemented with 1 mM MnCl2 was used to remove the phosphorylation on the peptides.” left out, “Germany).” for “Germany). Binding curves represent the mean of 4 independent experiments, with error bars of 1 standard deviation.”

In the case of “Flu-GYGFLSPGSR(pS)PKFKSSK [RIF1-L phosphoS^2265PKF peptide, fluorescein-labelled RIF1-L-derived phosphopeptide]”, the “binding to BRCA1-BRCT” value ([1]; fluorescein-labelled peptide 200 nM, 25 mM HEPES pH 7.5, 200 mM NaCl, room temperature, mean of 4 independent experiments) is reported as “bound strongly”, the “interaction affinity relative to BRIP1 phospho-peptide” value ([1]; peptide 200 nM, 25 mM HEPES pH 7.5, 200 mM NaCl) is reported as “comparable to that for a phospho-peptide from BRIP1” and the “binding to BRCA1-BRCT after λ phosphatase” value ([1]; peptide treated with Lambda phosphatase, 1 mM MnCl2) is reported as “abolished binding”. The “binding to tandem BRCT domains of 53BP1” value [2] was “did not bind”, the “binding to tandem BRCT domains of TOPBP1” value [3] was “did not bind” and the “binding to tandem BRCT domains of MDC1” value [4] was “did not bind”.
